This test concerns MV-4-11 cells. The test can be described thus: Gene expression microarray analysis (Affymetrix PrimeView) and GSEA. Conditions: MV-4-11 cells, 48 hours. The test is classed as cell-based, human. The arrangement: RFU PODN (11730768_x_at) / Fold change /veh PODN (11730768_x_at) / RFU LINC00158 (11744669_a_at) / Fold change /veh LINC00158 (11744669_a_at) / RFU DUSP10 (11751237_a_at) / Fold change /veh DUSP10 (11751237_a_at) / RFU ID3 (11757404_x_at) / Fold change /veh ID3 (11757404_x_at) / RFU PLEKHG5 (11737974_s_at) / Fold change /veh PLEKHG5 (11737974_s_at) / RFU LRRC4B (11730491_at) / Fold change /veh LRRC4B (11730491_at) / RFU GIMAP4 (11747438_a_at) / Fold change /veh GIMAP4 (11747438_a_at) / RFU KRT8 (11758183_x_at) / Fold change /veh KRT8 (11758183_x_at) / RFU CNN1 (11734310_a_at) / Fold change /veh CNN1 (11734310_a_at) / RFU VPS37D (11726825_at) / Fold change /veh VPS37D (11726825_at) / RFU C10orf10 (11716522_x_at) / Fold change /veh C10orf10 (11716522_x_at) / RFU KIR2DL2 /// KIR2DL4 /// KIR2DL5A /// KIR2DL5B /// KIR2DS1 /// KIR2DS2 /// KIR2DS3 /// KIR2DS4 /// KIR3DL3 /// KIR3DL3 /// KIR3DS1 (11738374_at) / Fold change /veh KIR2DL2 /// KIR2DL4 /// KIR2DL5A /// KIR2DL5B /// KIR2DS1 /// KIR2DS2 /// KIR2DS3 /// KIR2DS4 /// KIR3DL3 /// KIR3DL3 /// KIR3DS1 (11738374_at) / RFU C1QL1 (11718748_at) / Fold change /veh C1QL1 (11718748_at) / RFU TMPRSS4 (11747572_a_at) / Fold change /veh TMPRSS4 (11747572_a_at) / RFU HAMP (11756126_x_at) / Fold change /veh HAMP (11756126_x_at) / RFU RNFT2 (11725882_a_at) / Fold change /veh RNFT2 (11725882_a_at) / RFU NR4A2 (11747474_a_at) / Fold change /veh NR4A2 (11747474_a_at) / RFU ABCC12 (11746883_a_at) / Fold change /veh ABCC12 (11746883_a_at) / RFU TMEM136 (11760407_x_at) / Fold change /veh TMEM136 (11760407_x_at) / RFU CLDN22 /// WWC2 (11732394_at) / Fold change /veh CLDN22 /// WWC2 (11732394_at) / RFU HLA-DPB1 (11760878_x_at) / Fold change /veh HLA-DPB1 (11760878_x_at) / RFU SPINT1 (11716480_a_at) / Fold change /veh SPINT1 (11716480_a_at) / RFU GAP43 (11754022_s_at) / Fold change /veh GAP43 (11754022_s_at) / RFU A4GNT (11735810_at) / Fold change /veh A4GNT (11735810_at) / RFU PRB3 (11715151_x_at) / Fold change /veh PRB3 (11715151_x_at) / RFU TUBB4B (11761932_at) / Fold change /veh TUBB4B (11761932_at) / RFU CAPN14 (11732068_a_at) / Fold change /veh CAPN14 (11732068_a_at) / RFU TMCC2 (11721928_a_at) / Fold change /veh TMCC2 (11721928_a_at) / RFU IRGQ (11745062_a_at) / Fold change /veh IRGQ (11745062_a_at) / RFU FAM174B (11720279_a_at) / Fold change /veh FAM174B (11720279_a_at) / RFU TMPRSS4 (11748680_a_at) / Fold change /veh TMPRSS4 (11748680_a_at) / RFU FAM212B (11763350_a_at) / Fold change /veh FAM212B (11763350_a_at) / RFU PLEKHG5 (11743358_a_at) / Fold change /veh PLEKHG5 (11743358_a_at) / RFU ZSCAN30 (11745921_a_at) / Fold change /veh ZSCAN30 (11745921_a_at) / RFU CMKLR1 (11741424_a_at) / Fold change /veh CMKLR1 (11741424_a_at) / RFU LOC101060620 /// MAPK8IP1 (11723275_at) / Fold change /veh LOC101060620 /// MAPK8IP1 (11723275_at) / RFU SPTSSB (11747773_x_at) / Fold change /veh SPTSSB (11747773_x_at) / RFU PRSS12 (11739890_at) / Fold change /veh PRSS12 (11739890_at) / RFU BIN1 (11741810_x_at) / Fold change /veh BIN1 (11741810_x_at) / RFU WNT11 (11732464_a_at) / Fold change /veh WNT11 (11732464_a_at) / RFU C10orf10 (11716521_a_at) / Fold change /veh C10orf10 (11716521_a_at) / RFU C5orf56 (11738089_at) / Fold change /veh C5orf56 (11738089_at) / RFU CYB561 (11721691_x_at) / Fold change /veh CYB561 (11721691_x_at) / RFU ANKRD19P (11752326_a_at) / Fold change /veh ANKRD19P (11752326_a_at) / RFU OR2T12 /// OR2T33 /// OR2T8 (11738714_s_at) / Fold change /veh OR2T12 /// OR2T33 /// OR2T8 (11738714_s_at) / RFU VCAN (11748164_a_at) / Fold change /veh VCAN (11748164_a_at) / RFU JSRP1 (11732532_at) / Fold change /veh JSRP1 (11732532_at) / RFU KRTAP10-11 (11738290_x_at) / Fold change /veh KRTAP10-11 (11738290_x_at) / RFU MYO3A (11730013_a_at) / Fold change /veh MYO3A (11730013_a_at) / RFU EBF3 (11725865_a_at) / Fold change /veh EBF3 (11725865_a_at) / RFU CAMK2N1 (11719241_x_at) / Fold change /veh CAMK2N1 (11719241_x_at) / RFU C5orf56 (11738088_a_at) / Fold change /veh C5orf56 (11738088_a_at) / RFU OLFML3 (11715873_a_at) / Fold change /veh OLFML3 (11715873_a_at) / RFU LOC100653217 /// NTM (11731650_a_at) / Fold change /veh LOC100653217 /// NTM (11731650_a_at) / RFU MAPK11 (11762145_a_at) / Fold change /veh MAPK11 (11762145_a_at) / RFU FIZ1 (11724087_x_at) / Fold change /veh FIZ1 (11724087_x_at) / RFU OASL (11726364_x_at) / Fold change /veh OASL (11726364_x_at) / RFU SOX15 (11748057_x_at) / Fold change /veh SOX15 (11748057_x_at) / RFU CD79A (11719716_a_at) / Fold change /veh CD79A (11719716_a_at) / RFU HIST1H1D (11736915_at) / Fold change /veh HIST1H1D (11736915_at) / RFU CASKIN2 (11723855_a_at) / Fold change /veh CASKIN2 (11723855_a_at) / RFU LOC730098 (11760151_x_at) / Fold change /veh LOC730098 (11760151_x_at) / RFU OR4N2 (11742367_at) / Fold change /veh OR4N2 (11742367_at) / RFU PRRT2 (11749266_a_at) / Fold change /veh PRRT2 (11749266_a_at) / RFU SNX32 (11753110_a_at) / Fold change /veh SNX32 (11753110_a_at) / RFU CDHR5 (11726645_a_at) / Fold change /veh CDHR5 (11726645_a_at) / RFU RCAN1 (11760418_a_at) / Fold change /veh RCAN1 (11760418_a_at) / RFU FAM167A (11723789_a_at) / Fold change /veh FAM167A (11723789_a_at) / RFU FAM26E (11764081_at) / Fold change /veh FAM26E (11764081_at) / RFU ISYNA1 (11749810_s_at) / Fold change /veh ISYNA1 (11749810_s_at) / RFU ACY1 (11761880_at) / Fold change /veh ACY1 (11761880_at) / RFU 11764098_at / Fold change /veh 11764098_at / RFU SAMD14 (11745864_x_at) / Fold change /veh SAMD14 (11745864_x_at) / RFU NPB (11741838_a_at) / Fold change /veh NPB (11741838_a_at) / RFU TMPRSS6 (11731388_a_at) / Fold change /veh TMPRSS6 (11731388_a_at) / RFU KRTAP10-2 (11738614_at) / Fold change /veh KRTAP10-2 (11738614_at) / RFU ARHGAP8 /// PRR5-ARHGAP8 (11727945_x_at) / Fold change /veh ARHGAP8 /// PRR5-ARHGAP8 (11727945_x_at) / RFU KRTAP5-7 /// NADSYN1 (11734609_at) / Fold change /veh KRTAP5-7 /// NADSYN1 (11734609_at) / RFU RASL12 (11751679_a_at) / Fold change /veh RASL12 (11751679_a_at) / RFU CDKN2B (11736163_a_at) / Fold change /veh CDKN2B (11736163_a_at) / RFU PRF1 (11729649_at) / Fold change /veh PRF1 (11729649_at) / RFU, ZNF638 /// ZNF638-IT1 / Fold change vs veh, ZNF638 /// ZNF638-IT1 / RFU, PANK3 / Fold change vs veh, PANK3 / RFU, SH3YL1 / Fold change vs veh, SH3YL1 / RFU, ZEB2 / Fold change vs veh, ZEB2 / RFU, NRIP1 / Fold change vs veh, NRIP1 / RFU, PTTG1IP / Fold change vs veh, PTTG1IP / RFU, CAPN2 / Fold change vs veh, CAPN2 / RFU, MED14 / Fold change vs veh, MED14 / RFU, SNORA58 / Fold change vs veh, SNORA58 / RFU, C1orf63 / Fold change vs veh, C1orf63 / RFU, LRRFIP1 / Fold change vs veh, LRRFIP1 / RFU, NDUFAF7 / Fold change vs veh, NDUFAF7 / RFU, SLC12A2 / Fold change vs veh, SLC12A2 / RFU, IBTK / Fold change vs veh, IBTK / RFU, ESF1 / Fold change vs veh, ESF1 / Fold change vs veh, TMEM50B / RFU, TAOK1 / Fold change vs veh, TAOK1 / RFU, ACBD3 / Fold change vs veh, ACBD3 / RFU, TMA16 / Fold change vs veh, TMA16 / RFU, RWDD3 / Fold change vs veh, RWDD3 / RFU, BCAT1 / Fold change vs veh, BCAT1 / RFU, EDEM3 / Fold change vs veh, EDEM3 / RFU, TMEM33 / Fold change vs veh, TMEM33 / RFU, WDR75 / Fold change vs veh, WDR75 / RFU, AHCTF1 / Fold change vs veh, AHCTF1 / RFU, TFRC / Fold change vs veh, TFRC / RFU, ZDHHC17 / Fold change vs veh, ZDHHC17 / RFU, NOM1 / Fold change vs veh, NOM1 / RFU, ARL8B / Fold change vs veh, ARL8B / RFU, ZBTB11 / Fold change vs veh, ZBTB11 / RFU, TAMM41 / Fold change vs veh, TAMM41 / RFU, KIAA1704 /// LOC100996395 / Fold change vs veh, KIAA1704 /// LOC100996395 / RFU, ING1 / Fold change vs veh, ING1 / RFU, TRMT61B / Fold change vs veh, TRMT61B / RFU, FUBP3 / Fold change vs veh, FUBP3 / RFU, TP53 / Fold change vs veh, TP53 / RFU, TNKS2 / Fold change vs veh, TNKS2 / RFU, ZFP14 / Fold change vs veh, ZFP14 / RFU, ACTR2 / Fold change vs veh, ACTR2 / RFU, PPP3R1 / Fold change vs veh, PPP3R1 / RFU, PIK3R1 / Fold change vs veh, PIK3R1 / RFU, HNRNPA1 / Fold change vs veh, HNRNPA1 / RFU, RNF170 / Fold change vs veh, RNF170 / RFU, ZNF28 / Fold change vs veh, ZNF28 / RFU, RNGTT / Fold change vs veh, RNGTT / RFU, OGT / Fold change vs veh, OGT / RFU, BRD1 / Fold change vs veh, BRD1 / RFU, MARS / Fold change vs veh, MARS / RFU, ZNF655 / Fold change vs veh, ZNF655 / RFU, FAHD1 / Fold change vs veh, FAHD1 / RFU, BDP1 / Fold change vs veh, BDP1 / RFU, LRRCC1 / Fold change vs veh, LRRCC1 / RFU, ARID1A / Fold change vs veh, ARID1A / RFU, ZNF146 / Fold change vs veh, ZNF146 / RFU, ZNF330 / Fold change vs veh, ZNF330 / RFU, GPN3 / Fold change vs veh, GPN3 / RFU, C9orf123 / Fold change vs veh, C9orf123 / RFU, N4BP2L2 / Fold change vs veh, N4BP2L2 / RFU, ARFIP1 / Fold change vs veh, ARFIP1 / RFU, FAM179B / Fold change vs veh, FAM179B / RFU, BCL10 / Fold change vs veh, BCL10 / RFU, UHRF1BP1L / Fold change vs veh, UHRF1BP1L / RFU, BET1 / Fold change vs veh, BET1 / RFU, CNOT2 / Fold change vs veh, CNOT2 / RFU, ZNF268 / Fold change vs veh, ZNF268 / Fold change vs veh, ZNF507 / RFU, DGCR2 / Fold change vs veh, DGCR2 / RFU, WDSUB1 / Fold change vs veh, WDSUB1 / Fold change vs veh, HSP90B1 /// MIR3652 / RFU, ADSS / Fold change vs veh, ADSS / RFU, GK / Fold change vs veh, GK / RFU, ZNF148 / Fold change vs veh, ZNF148 / RFU, TAF9 / Fold change vs veh, TAF9 / RFU, SLC1A5 / Fold change vs veh, SLC1A5 / RFU, SLMO2 / Fold change vs veh, SLMO2 / RFU, ABCC4 / Fold change vs veh, ABCC4 / RFU, LOC101060439 /// RAP1B / Fold change vs veh, LOC101060439 /// RAP1B / RFU, RFX7 / Fold change vs veh, RFX7 / RFU, GTPBP10 / Fold change vs veh, GTPBP10 / RFU, CNEP1R1 / Fold change vs veh, CNEP1R1 / RFU, BIVM-ERCC5 /// ERCC5 / Fold change vs veh, BIVM-ERCC5 /// ERCC5 / RFU, ILF3 / Fold change vs veh, ILF3 / RFU 11762660_at / Fold change /veh 11762660_at / RFU VCAN (11757783_s_at) / Fold change /veh VCAN (11757783_s_at) / RFU DDX43 (11728927_at) / Fold change /veh DDX43 (11728927_at) / RFU KRT8 (11758188_x_at) / Fold change /veh KRT8 (11758188_x_at) / RFU NKD1 (11759106_at) / Fold change /veh NKD1 (11759106_at) / RFU SRD5A1 (11742802_a_at) / Fold change /veh SRD5A1 (11742802_a_at) / RFU TPSAB1 /// TPSB2 (11721975_s_at) / Fold change /veh TPSAB1 /// TPSB2 (11721975_s_at) / RFU GSTM3 (11746129_a_at) / Fold change /veh GSTM3 (11746129_a_at) / RFU IL23R (11737362_x_at) / Fold change /veh IL23R (11737362_x_at) / RFU TMEM51 (11727254_a_at) / Fold change /veh TMEM51 (11727254_a_at) / RFU PIWIL2 (11732686_x_at) / Fold change /veh PIWIL2 (11732686_x_at) / RFU ORM1 (11744905_x_at) / Fold change /veh ORM1 (11744905_x_at) / RFU CCDC152 (11743942_at) / Fold change /veh CCDC152 (11743942_at) / RFU ECM1 (11717891_a_at) / Fold change /veh ECM1 (11717891_a_at) / RFU IL23R (11748794_a_at) / Fold change /veh IL23R (11748794_a_at) / RFU TNFAIP8L3 (11732012_x_at) / Fold change /veh TNFAIP8L3 (11732012_x_at) / RFU MBOAT4 (11741988_at) / Fold change /veh MBOAT4 (11741988_at) / RFU 11764193_at / Fold change /veh 11764193_at / RFU TMEM53 (11763286_at) / Fold change /veh TMEM53 (11763286_at) / RFU MAGEB2 (11727129_at) / Fold change /veh MAGEB2 (11727129_at) / RFU TMEM200A (11744735_a_at) / Fold change /veh TMEM200A (11744735_a_at) / RFU CCDC152 (11751479_a_at) / Fold change /veh CCDC152 (11751479_a_at) / RFU FAM211A (11726209_a_at) / Fold change /veh FAM211A (11726209_a_at) / RFU RGS16 (11746705_a_at) / Fold change /veh RGS16 (11746705_a_at) / RFU VCAN (11755009_s_at) / Fold change /veh VCAN (11755009_s_at) / RFU RHOB (11743442_s_at) / Fold change /veh RHOB (11743442_s_at) / RFU RGS16 (11720943_a_at) / Fold change /veh RGS16 (11720943_a_at) / RFU RGS16 (11720944_at) / Fold change /veh RGS16 (11720944_at) / RFU, VPS4B / Fold change vs veh, VPS4B / RFU, CREB1 / Fold change vs veh, CREB1 / RFU, DNAJC13 / Fold change vs veh, DNAJC13 / RFU, GNAQ / Fold change vs veh, GNAQ / RFU, CDK5R1 / Fold change vs veh, CDK5R1 / RFU, ZRANB3 / Fold change vs veh, ZRANB3 / RFU, CUL4A / Fold change vs veh, CUL4A / RFU, CCNY / Fold change vs veh, CCNY / RFU, UFL1 / Fold change vs veh, UFL1 / RFU, COG3 / Fold change vs veh, COG3 / RFU, DIAPH2 / Fold change vs veh, DIAPH2 / RFU, SKA2 / Fold change vs veh, SKA2 / RFU, AFF3 / Fold change vs veh, AFF3 / RFU, LMF1 / Fold change vs veh, LMF1 / RFU, IPO11 / Fold change vs veh, IPO11 / RFU, DFFB / Fold change vs veh, DFFB / RFU, FOXP1 / Fold change vs veh, FOXP1 / RFU, CARD8 / Fold change vs veh, CARD8 / RFU, STRN3 / Fold change vs veh, STRN3 / RFU, ADK / Fold change vs veh, ADK / RFU, RASSF2 / Fold change vs veh, RASSF2 / RFU, WIPF1 / Fold change vs veh, WIPF1 / RFU, LARP1B / Fold change vs veh, LARP1B / RFU, RASA1 / Fold change vs veh, RASA1 / RFU, RB1 / Fold change vs veh, RB1 / RFU, PPFIA1 / Fold change vs veh, PPFIA1 / RFU, MAT2A / Fold change vs veh, MAT2A / RFU, CCT5 / Fold change vs veh, CCT5 / RFU, WDR92 / Fold change vs veh, WDR92 / RFU, CUX1 / Fold change vs veh, CUX1 / RFU, TTC7A / Fold change vs veh, TTC7A / RFU, TMEM135 / Fold change vs veh, TMEM135 / RFU, DEPTOR / Fold change vs veh, DEPTOR / RFU, CPM / Fold change vs veh, CPM / RFU, DNAJB6 / Fold change vs veh, DNAJB6 / RFU, CACNA2D3 / Fold change vs veh, CACNA2D3 / RFU, DTX4 / Fold change vs veh, DTX4 / RFU, TFCP2 / Fold change vs veh, TFCP2 / RFU, GMCL1 /// GMCL1P1 / Fold change vs veh, GMCL1 /// GMCL1P1 / RFU, AEBP2 / Fold change vs veh, AEBP2 / RFU, SNHG1 /// SNORD22 /// SNORD25 /// SNORD26 /// SNORD27 /// SNORD28 /// SNORD29 /// SNORD31 / Fold change vs veh, SNHG1 /// SNORD22 /// SNORD25 /// SNORD26 /// SNORD27 /// SNORD28 /// SNORD29 /// SNORD31 / Fold change (Aza/veh), C12orf56 (ProbeSet 11735607_a_at) / Fold change (ACY-1035/veh), C12orf56 (ProbeSet 11735607_a_at) / Fold change (Aza/veh), FGFR1OP (ProbeSet 11751329_s_at) / Fold change (ACY-1035/veh), FGFR1OP (ProbeSet 11751329_s_at) / Fold change (Aza/veh), VPS36 (ProbeSet 11739960_a_at) / Fold change (ACY-1035/veh), VPS36 (ProbeSet 11739960_a_at) / RFU SYPL1 (11715823_x_at) / Fold change /veh SYPL1 (11715823_x_at) / RFU IGFBP7 (11715501_s_at) / Fold change /veh IGFBP7 (11715501_s_at) / RFU REEP3 (11722064_at) / Fold change /veh REEP3 (11722064_at) / RFU IGLL1 (11728026_x_at) / Fold change /veh IGLL1 (11728026_x_at): dose or concentration left out as unconfirmed.

On to `Nc1ccc(-c2cccs2)cc1NC(=O)c1ccc2c(c1)cc(C1CC1)n2CCN1CCOCC1` [ACY-1035], for which the “Fold change /veh IRGQ (11745062_a_at)” value was found to be 0.91.

Source of the values: article PMC5218480 (PLoS ONE, 2017).
